Results: ChEMBL document CHEMBL1641496, “Imidazolylchromanone oxime ethers as potential anticonvulsant agents: Anticonvulsive evaluation in PTZ-kindling model of epilepsy and SAR study” (Bioorg Med Chem Lett, 2011)

What was measured:
Rattus norvegicus [1] = assay: Anticonvulsant activity against PTZ-induced kindling Wistar rat model assessed as duration of behavirol seizure at 100 mg/kg, ip; assay type: functional; conditions: route intraperitoneal
Rattus norvegicus [2] = assay: Anticonvulsant activity against PTZ-induced kindling Wistar rat model assessed as seizure latency at 100 mg/kg, ip; assay type: functional; conditions: route intraperitoneal
Rattus norvegicus [3] = assay: Anticonvulsant activity against PTZ-induced kindling Wistar rat model assessed as duration of behavirol seizure at 200 mg/kg, ip; assay type: functional; conditions: route intraperitoneal
Rattus norvegicus [4] = assay: Anticonvulsant activity against PTZ-induced kindling Wistar rat model assessed as seizure latency at 200 mg/kg, ip; assay type: functional; conditions: route intraperitoneal
Rattus norvegicus [5] = assay: Anticonvulsant activity against PTZ-induced kindling Wistar rat model assessed as seizure latency at 30 mg/kg, ip; assay type: functional; conditions: route intraperitoneal
Rattus norvegicus [6] = assay: Neurotoxicity in Wistar rat assessed as motor impairment at 100 mg/kg, ip by rotarod test; assay type: toxicity, organism-based; parameters: dose 100 mg/kg, route intraperitoneal; conditions: in vivo
Rattus norvegicus [7] = assay: Neurotoxicity in Wistar rat at 30 mg/kg, ip by rotarod test; assay type: toxicity, organism-based; parameters: dose 30 mg/kg, route intraperitoneal; conditions: in vivo
Rattus norvegicus [8] = assay: Anticonvulsant activity against PTZ-induced kindling Wistar rat model assessed as duration of behavirol seizure at 30 mg/kg, ip; assay type: functional; conditions: route intraperitoneal
Rattus norvegicus [9] = assay: Neurotoxicity in Wistar rat assessed as motor impairment at 30 mg/kg, ip by rotarod test; assay type: toxicity, organism-based; parameters: dose 30 mg/kg, route intraperitoneal; conditions: in vivo

SMILES	Time (Rattus norvegicus [5]) [s]	Time (Rattus norvegicus [8]) [s]	further results
CCCC(CCC)C(=O)[O-].[Na+] [VALPROATE SODIUM]	–	–	Time (Rattus norvegicus [1]): 40.5 s; Time (Rattus norvegicus [2]): 817 s; Time (Rattus norvegicus [3]): 26.5 s; Time (Rattus norvegicus [4]): 900 s
CC1Oc2cc(Cl)ccc2/C(=N/OCc2ccc(Cl)cc2Cl)C1n1ccnc1.O=[N+]([O-])O (racemic)	776	342	Activity (Rattus norvegicus [6]): 50%; Activity (Rattus norvegicus [7]): Non-toxic
CC1Oc2ccccc2/C(=N/OCc2ccc(F)cc2)C1n1ccnc1.O=[N+]([O-])O (racemic)	263	52.3	–
Clc1ccc(CO/N=C2/c3ccc(Cl)cc3OCC2n2ccnc2)cc1.O=[N+]([O-])O (racemic)	467	47	–
CC1Oc2cc(Cl)ccc2/C(=N/OCc2ccccc2)C1n1ccnc1.O=[N+]([O-])O (racemic)	282	50.7	–
Clc1ccc2c(c1)OCC(n1ccnc1)/C2=N\OCc1ccccc1.O=[N+]([O-])O (racemic)	323	46.7	–
Clc1ccc(CO/N=C2/c3ccccc3OCC2n2ccnc2)cc1Cl.O=[N+]([O-])O (racemic)	285	50.3	–
CC1Oc2ccccc2/C(=N/OCc2ccc(Br)cc2)C1n1ccnc1.O=[N+]([O-])O (racemic)	305	51.3	–
CC1Oc2ccccc2/C(=N/OCc2cccc(F)c2)C1n1ccnc1.O=[N+]([O-])O (racemic)	321	51.5	–
CC1Oc2ccccc2/C(=N/OCc2ccc(Cl)cc2Cl)C1n1ccnc1.O=[N+]([O-])O (racemic)	644	42.8	–
Clc1ccc(CO/N=C2\c3ccccc3OCC2n2ccnc2)cc1.O=[N+]([O-])O (racemic)	258	51	–
CC1Oc2ccccc2/C(=N/OCc2ccccc2F)C1n1ccnc1.O=[N+]([O-])O (racemic)	254	51.7	–
Clc1ccc(CO/N=C2/c3ccc(Cl)cc3OCC2n2ccnc2)c(Cl)c1.O=[N+]([O-])O (racemic)	715	40.3	Activity (Rattus norvegicus [9]): 25%; Activity (Rattus norvegicus [7]): Non-toxic
Brc1ccc(CO/N=C2\c3ccccc3OCC2n2ccnc2)cc1.O=[N+]([O-])O (racemic)	261	56.5	–
Clc1ccc(CO/N=C2/c3ccccc3OCC2n2ccnc2)c(Cl)c1.O=[N+]([O-])O (racemic)	358	49.2	–
Brc1ccc(CO/N=C2/c3ccccc3OCC2n2ccnc2)cc1.O=[N+]([O-])O (racemic)	268	54.8	–
CC1Oc2ccccc2/C(=N/OCc2ccc(Cl)c(Cl)c2)C1n1ccnc1.O=[N+]([O-])O (racemic)	367	47.5	–
Clc1ccc(CO/N=C2\c3ccccc3OCC2n2ccnc2)cc1Cl.O=[N+]([O-])O (racemic)	266	51.8	–
Clc1ccc(CO/N=C2\c3ccccc3OCC2n2ccnc2)c(Cl)c1.O=[N+]([O-])O (racemic)	293	49.3	–
CC1Oc2ccccc2/C(=N/OCc2ccc(Cl)cc2)C1n1ccnc1.O=[N+]([O-])O (racemic)	286	49.7	–
Clc1ccc(CO/N=C2/c3ccccc3OCC2n2ccnc2)cc1.O=[N+]([O-])O (racemic)	237	52	–
Clc1ccc2c(c1)OCC(n1ccnc1)/C2=N\OCc1ccc(Cl)c(Cl)c1.O=[N+]([O-])O (racemic)	271	48.5	–
CC1Oc2cc(Cl)ccc2/C(=N/OCc2ccc(Cl)cc2)C1n1ccnc1.O=[N+]([O-])O (racemic)	286	45.5	–
O=[N+]([O-])O.c1ccc(CO/N=C2/c3ccccc3OCC2n2ccnc2)cc1 (racemic)	274	49.8	–
CC1Oc2ccccc2/C(=N/OCc2ccccc2)C1n1ccnc1.O=[N+]([O-])O (racemic)	259	52.7	–
O=[N+]([O-])O.c1ccc(CO/N=C2\c3ccccc3OCC2n2ccnc2)cc1 (racemic)	288	50.8	–
